Experimental data reported in ChEMBL document CHEMBL4715829, “Heterodimeric Rifampicin-Tobramycin conjugates break intrinsic resistance of Pseudomonas aeruginosa to doxycycline and chloramphenicol in vitro and in a Galleria mellonella in vivo model” (Eur J Med Chem, 2019).

Key:
Assay type in all cases: functional
[1] = test system: Enterobacter cloacae; experiment: Potentiation of doxycycline-induced antibacterial activity against Enterobacter cloacae ATCC 117029 assessed as fold change in doxycycline MIC at 9.8 uM incubated for 18 hrs in presence of doxycycline by broth microdilution assay relative to control
[2] = test system: Pseudomonas aeruginosa; experiment: Antibacterial activity against Pseudomonas aeruginosa 100036 assessed as fractional inhibitory concentration incubated for 18 hrs in presence of minocycline by broth microdilution assay
[3] = test system: Pseudomonas aeruginosa; experiment: Potentiation of doxycycline-induced antibacterial activity against Pseudomonas aeruginosa 91433 assessed as fold change in doxycycline MIC at 7.6 uM incubated for 18 hrs in presence of doxycycline by broth microdilution assay relative to control
[4] = test system: Pseudomonas aeruginosa; experiment: Potentiation of doxycycline-induced antibacterial activity against Pseudomonas aeruginosa 100036 assessed as fold change in doxycycline MIC at 7.6 uM incubated for 18 hrs in presence of doxycycline by broth microdilution assay relative to control

Row | SMILES | fold change (FC) [1] | FIC [2] | fold change (FC) [3] | fold change (FC) [4]
1 | CO[C@H]1/C=C/O[C@@]2(C)Oc3c(C)c(O)c4c(O)c(c(/C=N/N5CCN(Cc6cn(CCCCCCO[C@@H]7[C@@H](O[C@H]8O[C@H](CO)[C@@H](O)[C@H](N)[C@H]8O)[C@H](N)C[C@H](N)[C@H]7O[C@H]7O[C@H](CN)[C@@H](O)C[C@H]7N)nn6)CC5)c(O)c4c3C2=O)NC(=O)/C(C)=C\C=C\[C@H](C)[C@H](O)[C@@H](C)[C@@H](O)[C@@H](C)[C@H](OC(C)=O)[C@@H]1C.Cl.Cl.Cl.Cl.Cl | 0 | 0.063 |  | 
2 | CO[C@H]1/C=C/O[C@@]2(C)Oc3c(C)c(O)c4c(O)c(c(/C=N/N5CCN(Cc6cn(CCCCCCCCCCCCO[C@@H]7[C@@H](O[C@H]8O[C@H](CO)[C@@H](O)[C@H](N)[C@H]8O)[C@H](N)C[C@H](N)[C@H]7O[C@H]7O[C@H](CN)[C@@H](O)C[C@H]7N)nn6)CC5)c(O)c4c3C2=O)NC(=O)/C(C)=C\C=C\[C@H](C)[C@H](O)[C@@H](C)[C@@H](O)[C@@H](C)[C@H](OC(C)=O)[C@@H]1C.O=C(O)C(F)(F)F.O=C(O)C(F)(F)F.O=C(O)C(F)(F)F.O=C(O)C(F)(F)F.O=C(O)C(F)(F)F |  |  | 4 | 4
